The test system of this data set is NCI-H295R cells. Briefly: Cell viability (MTT) in the H295R assay. It counts as cell-based, human. As to conditions: human, 48 h. As for the experimental part: To capture effects on steroid hormone synthesis (testosterone and androstendione), we tested all 12 pesticides in the H295R assay with the human adrenocortical carcinoma cell line NCI-H295R (American Type Culture Collection no. CRL-2,128, LGC Standards), as previously described ([Hecker et al. 2011]; [Rosenmai et al. 2013]). In brief, cells were cultured in DMEM/F-12 +glutamine medium with HEPES buffer (Invitrogen) containing 1% insulin-transferrin-sodium selenite plus Premix (VWR) and 2.5% Nu-Serum (BD Bioscience) at 37°C in a 5% CO2 atmosphere. The day before exposure, cells were seeded 300,000 per well in clear 24-well plates (VWR Corning). Cells were exposed for 48 h to control (Forskolin: 1μM , 10μM (Sigma-Aldrich); and Prochloraz: 0.3μM , 3μM (VWR-Bie and Berntsen) or test compounds. The vehicle (DMSO) concentration was kept constant in all wells (0.1%). After 48 h, the exposure culture medium was removed and stored at –80°C until the levels of 10 steroid hormones (testosterone, androstenedione, aldosterone, corticosterone, cortisol, dehydroepiandrosterone, 17α-hydroxyprogesterone , progesterone, estrone, and 17β-estradiol ) were quantified using the high-performance liquid chromatography–tandem mass spectrometry method described elsewhere ([Mortensen and Pedersen 2007]). Minor modifications were made to accommodate a smaller sample size and to include more hormones. […]

For the compound `N#Cc1c[nH]cc1-c1cccc2c1OC(F)(F)O2` [Fludioxonil, fludioxonil], the “Cytotoxicity in H295R assay, concentrations” value is listed as > 12.5 µM.

These data come from publication PMC7687371, “Quantitative in Vitro to in Vivo Extrapolation (QIVIVE) for Predicting Reduced Anogenital Distance Produced by Anti-Androgenic Pesticides in a Rodent Model for Male Reproductive Disorders” (Environmental Health Perspectives, 2020).
